Values of other authors as cited in PMC8313041 (Heterocyclic communications, 2015).

What was measured:
[1] = system: human leukemic T-cell lines

## Nc1ncnc2c1ncn2[C@@H]1O[C@H](CO)[C@@H](F)[C@@H]1F [Compound 2, 9-(2′,3′-dideoxy-2′,3′-difluoro-β-D-arabinofuranosyl)adenine]
HIV-1
  in vitro potency against HIV-1 compared with lodenosine: more potent in vitro against HIV-1 than lodenosine 1

## Nc1nc2c(ncn2[C@@H]2O[C@H](CO)[C@@H](O)[C@@H]2F)c(=O)[nH]1 [Compound 3, 9-(2′-deoxy-2′-fluoro-β-D-arabinofuranosyl)guanine]
[1]
  activity against human leukemic T-cell lines: displays activity against human leukemic T-cell lines

## Nc1ncnc2c1ncn2[C@@H]1O[C@H](CO)C[C@@H]1F [lodenosine, 2′-β-fluoro-2′,3′-dideoxyadenosine]
HIV-1
  in vitro activity against HIV-1: displays in vitro activity against HIV-1
